# Assay results as given in the METLIN SMRT retention time set (Domingo-Almenara et al. 2019).
# Assay: gradient 5% acetonitrile 3 min, to 50% in 2 min, to 85% in 15 min, held 3 min, 100 µL/min
# Conditions: column: Zorbax Extend-C18 2.1 x 50 mm; eluents: water / acetonitrile, 0.1% formic acid
# Summary of the method: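 Mixtures of ~100 pure standards were chromatographed on a Zorbax Extend-C18 column (2.1 × 50 mm, 1.8 μm) at 100 μL/min using water and acetonitrile, each with 0.1% formic acid. Detection used a quadrupole time-of-flight mass spectrometer in positive and negative ionization mode, and data collection spanned 3 months. Retention time was obtained from adduct peaks picked computationally and each checked manually.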
row,SMILES,RP-LC retention time
1,CCOc1ccc(-c2csc(NC(=O)CCc3ccccc3)n2)cc1,1120 s
2,CC(C)CCN1CCC(N2CCN(C(=O)CC(C)C)CC2)C1=O (stereo not given),579 s
3,CN(CCCNC(=O)c1ccc2c(c1)N(C)C(=O)C1CCCCN21)Cc1ccccc1 (stereo not given),643 s
4,Cc1ccc(N(C)C(=O)CN2C(=O)CCCc3cc(S(=O)(=O)N4CCCCC4)ccc32)cc1,976 s
5,CCCN1C(=O)CN(S(C)(=O)=O)CC1(C)C(=O)NCc1ccc(Cl)cc1 (stereo not given),758 s
6,COc1ccc(C(CNC(=O)c2cc(=O)c3cc(C)cc(C)c3o2)N(C)C)cc1 (stereo not given),675 s
7,O=C(Nc1ccccc1)N(Cc1cccnc1)C1CN(Cc2ccc(F)c(F)c2)C1,965 s
8,CCOC(=O)N1CCN(/C=C2\Oc3c(ccc(O)c3C)C2=O)CC1,637 s
9,CN1CCN(S(=O)(=O)c2ccc3nn(Cc4c(F)cccc4Cl)c(=O)n3c2)CC1,642 s
10,Cc1ccc(NC(=O)C2CCCN(C(=O)C3Sc4ccccc4NC3=O)C2)cc1F (stereo not given),844 s
11,O=C(c1ccccc1F)N1CCN(c2nc(-c3ccc(Cl)cc3)no2)CC1,1040 s
12,Cc1cc(C)cc(Oc2nccn3c(=O)n(CC(=O)Nc4cccc(Cl)c4C)nc23)c1,992 s
13,CC(=O)N1CCc2cc(N3CC(C(=O)N(C)Cc4ccccc4)CC3=O)ccc21 (stereo not given),697 s
14,CC(C)c1ccc2occ(CC(=O)N(Cc3ccc(N(C)C)cc3)C3CCS(=O)(=O)C3)c2c1 (stereo not given),936 s
15,Cc1nc(C2(C)CCN(S(=O)(=O)c3c(C)c(C)cc(C)c3C)CC2)no1,1140 s
16,O=C(Cc1ccc(Cl)cc1)N1C[C@@H]2C[C@H]1C[C@@H]2NS(=O)(=O)c1cccs1,838 s
17,Cc1ccc(-c2cc3c4nnc(SCC(=O)Nc5cccc(Cl)c5C)n4ccn3n2)cc1C,1060 s
18,Cn1cc(CCN2CCN(S(=O)(=O)c3cccc(C#N)c3)CC2)c2cccnc21,608 s
19,Cc1ccc(-c2noc(-c3cccc(S(=O)(=O)NCc4ccccc4)c3)n2)cc1,1210 s
20,CC(C)(C)CC(=O)Nc1cnc(-c2ccc(Cl)cc2)nc1,1130 s
21,COCCN1C(=O)CCc2c(C)nc(-c3cccnc3)nc21,614 s
22,Cc1ccc(CNC(=O)N2CCc3nc(-c4ccc(F)cc4)ncc3C2)cc1,952 s

row,SMILES,RP-LC retention time
1,Cc1ccc(N2C(=O)C3N=NN(Cc4nc(-c5ccc(OC(C)C)cc5)no4)C3C2=O)cc1F (stereo not given),1140 s
2,COc1ccc(N2CC(c3noc(-c4ccc(OC)cc4OC)n3)CC2=O)cc1 (stereo not given),861 s
3,CC(=O)c1ccc(NC(=O)c2cnc(-c3ccccc3)nc2-c2ccncc2)cc1,795 s
4,O=C(CSc1nnc(-c2ccc3c(c2)OCCO3)o1)N1CCN(c2ccccc2)CC1,850 s
5,CCOC(=O)Cc1ccc(NC(=O)NCCc2c(C)nn(C)c2C)cc1,644 s
6,O=C(NCCn1nc(-c2ccc(Cl)cc2)ccc1=O)c1csc(-c2ccccc2)n1,854 s
7,CN1c2ccc(F)cc2C(=O)NC12CCN(C(=O)c1cccc(F)c1)CC2,751 s
8,COc1cccc(NC(=O)N(C)CC2CCOCC2)c1,685 s
9,CCCCS(=O)(=O)NC1CCCC(OC(=O)Nc2ccc(F)cc2)C1 (stereo not given),883 s
10,CCc1nc2cc(-c3noc(COc4cccc(Cl)c4)n3)ccc2o1,1240 s
11,O=C(COc1ccccc1)N1CCN(c2cc(-c3ccccc3)[nH]n2)CC1,776 s
12,O=C(C1CCC1)N1CCc2sc(S(=O)(=O)N3CCN(c4ccccc4)CC3)cc2C1,1060 s
13,COc1ccc(NC(=O)CN2CCc3[nH]c4c(C)cc(F)cc4c(=O)c3C2)c(OC)c1,631 s
14,COc1c(C)cc(S(=O)(=O)NCCN2CCOCC2)c(C)c1C,568 s
15,COc1ncc(C(=O)N2CCN(c3ccc(F)cc3)CC2)cn1,735 s
16,COc1ccc(N2CCN(c3nc(C(=O)N4CCOCC4)cs3)CC2)cc1,716 s
17,CCOc1ccccc1-c1nc(CN(c2ccccc2OC)S(=O)(=O)c2ccccc2C)c(C)o1,1250 s
18,Fc1cccc(-c2noc(-c3nc(-c4ccncc4)no3)n2)c1,951 s
19,O=C(NCc1ccccc1F)C1CCN(C(=O)c2ncn3c2COC(c2ccccc2)C3)CC1 (stereo not given),747 s
20,O=C(CCc1nc(-c2cccnc2)no1)NCCc1c[nH]c2ccccc12,709 s
21,CCOC(=O)c1c(C(C)(C)C)oc2ccc(OCC#N)cc12,1140 s
22,CCC(=O)N1CCc2cc(N3CC(C(=O)Nc4ccc(C)cc4C)CC3=O)ccc21 (stereo not given),742 s

row,SMILES,RP-LC retention time
1,Cc1cc(C(N)=O)c(C)n1Cc1ccc(F)cc1,752 s
2,COc1ccc(S(=O)(=O)N2CCN(CCc3cn(C)c4ncccc34)CC2)cc1Cl,654 s
3,N#Cc1cccc(Cn2cc(S(=O)(=O)N3CCCCC3)ccc2=O)c1,842 s
4,COc1ccc(-c2nnc(-c3cc(S(=O)(=O)NCC4CCCO4)ccc3Cl)o2)cc1 (stereo not given),917 s
5,Cc1nc(-n2c(C)ccc2C)sc1C(=O)NC1CC1,850 s
6,Cc1oc(-c2ccccc2)nc1Cc1noc(-c2ccncc2)n1,920 s
7,COc1ccc(S(=O)(=O)N2CCCC(C(=O)NC3CCCC3)C2)cc1OC (stereo not given),802 s
8,Cc1ccc(C2Cn3nnc(-c4nc(-c5ccc(C(F)(F)F)cc5)no4)c3CO2)c(C)c1 (stereo not given),1300 s
9,CCc1ccc2c(c1)cc(S(=O)(=O)c1ccccc1)c(=O)n2CC(=O)NC1CCCCC1,1030 s
10,CCOC(=O)c1nc(NCCCN2CCN(c3cc(C)ccc3C)CC2)c2ccccc2n1,715 s
11,Cc1ccc(C(=O)NC2CCN(c3ccccc3)C2=O)cc1F (stereo not given),823 s
12,CCCNc1cc(N2CCC(CCC(=O)NCCC(C)C)CC2)ncn1,693 s
13,CCCc1cc(SCc2ccc(C(=O)OC)cc2)ncn1,992 s
14,O=C(Cn1nc(C2CC2)cc1C(=O)N1CCCC1)Nc1ccccc1Cl,815 s
15,COc1cccc(C(=O)c2oc3ccccc3c2NC(=O)c2ccccc2[N+](=O)[O-])c1,1080 s
16,CC(C)c1ccc(N2C(=O)CN(S(C)(=O)=O)CC2(C)C(=O)NCc2ccc(Cl)cc2)cc1 (stereo not given),966 s
17,Cc1nc(C)c(C(=O)N2C[C@H]3C[C@H](C2)[C@H]2CCCC(=O)N2C3)s1,755 s
18,O=C1CCCCC(CNC(=O)c2ccsc2)N1 (stereo not given),619 s
19,O=C(Cn1nc(N2CCCCCC2)c2ccccc2c1=O)NCc1ccc(F)cc1,1040 s
20,CCCN1C(=O)COc2ccc(-c3noc(-c4ccc(CS(=O)(=O)c5ccccc5)cc4)n3)cc21,1130 s
21,CC(C)c1noc(-c2cc(=O)n(CC(=O)Nc3ccc4c(c3)OCO4)c3ccccc23)n1,956 s
